Measurements taken from US9061984B2 (University of Louisville Research Foundation, Inc., priority 2008, dated 2015).
Values after ≈ are worked out from the molar mass of the structure shown. Read-outs that look alike come from different tables or passages of the source.

Experiments:
[1] = test system: peritoneal macrophages; test: Toxicity to peritoneal macrophages (Trypan Blue count); assay type: cell-based, BALB/C mouse
Protocol: (§1) Peritoneal macrophages were prepared as follows. Non-inflammatory macrophages (10^6) were collected from each BALB/C mouse. The cells adhered at 37° C. after 2 h under 5% CO2 in a CO2 incubator. The plates were then rinsed two to three times with 0.5 mL of RPMI+buffer MOPS without fetal calf serum to eliminate non-adhering cells. The supernatant on the plates was replaced by fresh medium (RPMI+glutamine+FCS+antibiotics), 0.5 mL of medium per well. To determine the toxicity of the compounds to macrophages, dilutions of compounds were added on a part of the macrophages prepared above. […] The medium was then removed and 1 μL of sterile Trypan Blue was added. Cover glasses N° 1 were left where cells were plated and then the number of macrophages in a microscope was determined with a haemocytometer. All experiments were performed in triplicate.

[2] = Cytotoxicity on VERO cells (MTT), anti-T. cruzi study; settings: African green monkey
[3] = test system: VERO cells; test: as above; settings: for IC50: Chlorocebus sabaeus, Vero
[4] = test system: Trypanosoma cruzi (Tulahuen C4); test: In vitro anti-T. cruzi activity (β-galactosidase CPRG colorimetric assay in VERO monolayer); assay type: cell-based; settings: for inhibition at 10 µg/mL / IC50: Trypanosoma cruzi, TULAHUEN, Vero; for inhibition at 10 µg/mL: 120 h, 10 μg/mL of each compound, 120 hours, read-out: T. cruzi Inhib. (%)
[5] = test system: axenic amastigotes of L. amazonensis (strain MHOM/BR/76/LTB-012); test: microbe, parasite or virus in culture; settings: Leishmania amazonensis
[6] = test system: VERO cells; test: Cell growth inhibition bioassay (sulforhodamine B); assay type: cell-based, African Green Monkey; settings: 48 h, SRB; for GI50: Chlorocebus sabaeus, Vero, read-out: GI50 in indicated cell line: VERO
Protocol: (§2) The cytotoxicity of compounds was assayed as follows. […] Appropriate solvent controls were tested for comparison. The percent inhibition of cell growth relative to the control was evaluated colorimetrically using a sulforhodamine B dye by comparison to the control. The calorimetric procedure followed that published in Skehan et al., J. Nat. Cancer Inst., […], pp. 1107-1112 (1990) and Boyd & Paull, Drug Dev. Res., Vol. 34, pp. 91-109 (1995). […] The cell lines are: 3T3 cells are BALB/3T3 clone A31 embryonic mouse fibroblast cells; H460 cells are human large cell lung cancer cells; DU145 cells are human prostate carcinoma cells; MCF-7 cells are human breast adenocarcinoma cells; M-14 cells are human melanoma cells; HT-29 cells are human colon adenocarcinoma cells; PC3 cells are human prostate adenocarcinoma cells; K562 cells are human chronic myelogenous leukemia cells; and VERO cells are African Green Monkey kidney epithelial cells.

[7] = test system: 3T3 cells; test: Cell growth inhibition bioassay (sulforhodamine B); assay type: cell-based, mouse; settings: 48 h, SRB; for GI50: Mus musculus, NIH3T3, read-out: GI50 in indicated cell line: 3T3
Protocol: as §2

[8] = test system: axenic amastigotes of L. amazonensis (strain MHOM/BR/76/LTB-012); settings: Table 8b
[9] = test system: HT-29 cells; test: Cell growth inhibition bioassay (sulforhodamine B); assay type: cell-based, human; settings: 48 h, SRB; for GI50: Homo sapiens, HT-29, read-out: GI50 in indicated cell line: HT-29
Protocol: as §2

[10] = test system: H460 cells; test: Cell growth inhibition bioassay (sulforhodamine B); assay type: cell-based, human; settings: 48 h, SRB; for GI50: Homo sapiens, NCI-H460, read-out: GI50 in indicated cell line: H460
Protocol: as §2

[11] = test system: M-14 cells; test: Cell growth inhibition bioassay (sulforhodamine B); assay type: cell-based, human; settings: 48 h, SRB; for GI50: Homo sapiens, M14, read-out: GI50 in indicated cell line: M-14
Protocol: as §2

[12] = test system: K562 cells; test: Cell growth inhibition bioassay (sulforhodamine B); assay type: cell-based, human; settings: 48 h, SRB; for GI50: Homo sapiens, K562, read-out: GI50 in indicated cell line: K562
Protocol: as §2

[13] = test system: DU145 cells; test: Cell growth inhibition bioassay (sulforhodamine B); assay type: cell-based, human; settings: 48 h, SRB; for GI50: Homo sapiens, DU-145, read-out: GI50 in indicated cell line: DU145
Protocol: as §2

[14] = test system: MCF-7 cells; test: Cell growth inhibition bioassay (sulforhodamine B); assay type: cell-based, human; settings: 48 h, SRB; for GI50: Homo sapiens, MCF7, read-out: GI50 in indicated cell line: MCF-7
Protocol: as §2

[15] = test system: M. tuberculosis H37Rv; test: Conventional aerobic (MABA) culture assay, luminescence MIC; assay type: cell-based, Mycobacterium tuberculosis; settings: aerobic, 7 days, H37Rv; for MIC: Mycobacterium tuberculosis, 168 h
[16] = Toxicity to peritoneal macrophages (Trypan Blue count); assay type: cell-based, BALB/C mouse; settings: BALB/C, mouse, Cytotoxicity Macrophages IC50
Protocol: as §1

[17] = test system: L. amazonensis; settings: intralesional, compounds 5 mg/kg/day, Glucantime 33 mg Sb(v)/kg/day; for Mean lesion wt (mg) (±SD): BALB/c mice n=10; for % Variation of lesion wt / % reduction of parasite burden in the lesion: vs control
[18] = test system: L. peruviana LCA08; test: Activity against macrophages infected with Leishmania amastigotes; settings: Leishmania peruviana, Macrophage, read-out: IC50 L. peruviana LCA08
[19] = test system: L. braziliensis PER006; test: as above; settings: Leishmania braziliensis, Macrophage, read-out: IC50 L. braziliensis PER006
Protocol: A cloned line of Leishmania amazonensis(strain MHOM/BR/76/LTB-012) was used in all experiments. Axenically grown amastigote forms of L. amazonensis were maintained by weekly subpassages in MAA/20 medium (Sereno and Lemesre, Antimicrobial Agents and Chemotherapy 41, 972-976 (1997)) at 32±1° C. in 25 cm^2 tissue culture flasks. L. peruviana (strain MHOM/PE/LCA08) and L. braziliensis (strainMHOM/PE/PER006) were maintained in the promastigote stage in a biphasic medium (blood agar with 0.89% NaCl, pH 7.4) at 24° C., with sub-passage every 3 to 4 days. Promastigotes (5×10^6 parasites) were then transferred to 25 cm2 tissue culture flasks containing 5 ml of M199 medium supplemented with 10% foetal bovine serum (FBS), pH 7.4. After 4 days, exponential phase promastigotes were centrifuged for 10 minutes at 1500 g and 4° C. The supernatant was discarded and replaced by fresh M199 medium supplemented with 20% FBS, pH 5.5. Axenic amastigotes transformation was then induced by increasing the temperature to 34° C. and incubating for 96 h (Teixeira et al., Parasitology Research 88, 963-968 (2002)).
Extracted cells were immediately deposited on sterile 4×4 mm cover glasses and placed in each well of a 96-well plate. Plates were incubated for 24 h at 37° C., 5% CO2 to allow cell adhesion (Castillo et al, Journal of Ethnopharmacology 112, 410-414 (2007)). Pre-warmed complete M199 medium was used twice to remove non-adherent cells. A neutral red method (Fautz et al., Mutation Research 253, 173-179 (1991)) was employed to determine cell concentration. Approximately 7×10^4 viable cells were deposited in each well for adhesion.
Infection of macrophages by amastigotes was determined as follows. […] Twelve hours after infection, a solution of the compounds to be tested was added to the cultures at various concentrations and maintained at 37° C. in 5% CO2 for a further forty-eight hours more. The plates were fixed with methanol and stained with 10% Giemsa stain. The percentage of infected macrophages was determined microscopically at 100 times magnification. The number of intracellular amastigotes was determined in 300 cells. Following Delorenzi et al. Antimicrobial Agents and Chemotherapy, 45, 1349-1354 (2001)) the percentage of infection rate (% IR) of each culture was calculated as follows: % IR=100−(infection rate of the treated culture/infection rate of the untreated culture)×100.
All experiments were performed in triplicate. ANOVA was used to test for statistical significance of differences (Epi-Info, Statview student program). The total parasite burden was calculated as a mean number of amastigotes per cells multiplied by the number of infected macrophages.

[20] = Table 2, read-out: IC50 - T. cruzi
[21] = Table 3, read-out: IC50 T. cruzi
[22] = 72 h, read-out: IC50 L. amazonensis
[23] = Mus musculus, Peritoneal macrophage, 48 h, Table 7, read-out: IC50 Macrophage
[24] = VERO cells, IC50 - VERO Cytotoxicity, Table 2
[25] = VERO cells, Cytotoxicity VERO Lab B, Lab B

Structure (SMILES)	inhibition at 10 µg/mL [4]	IC50 [4, 20]	IC50 [4, 21]	IC50 [5, 22]	IC50 [1, 23]	IC50 [2, 24]	IC50 ([3]; read-out: IC50 VERO, Table 3)	IC50 at 48 h [16]	IC50 [2, 25]	IC50 [18]	GI50 [6]	GI50 [7]	Selectivity Index [8]	GI50 [9]	GI50 [10]	GI50 [11]	GI50 [12]	GI50 [13]	GI50 [14]	MIC [15]	also measured
C=CCOc1cc(OC)c(C(=O)/C=C/c2ccccc2Br)c(OCC=C)c1 [Compound I-16]	63.4%	5.95 µg/mL	13.9 µM	7.9 µM																	IC50 ([1]; Mus musculus, Peritoneal macrophage, 48 h, read-out: IC50 Macrophage): 5.4 µM; IC50 [2]: 6 µg/mL (≈ 14 µM); IC50 ([3]; read-out: IC50 VERO): 13.9 µM
C=CCOc1cc(OC)c(C(=O)/C=C/c2cc(OC)c(OC)c(OC)c2)c(OCC=C)c1 [Compound I-20, (2E)-1-[2-Methoxy-4,6-bis(2-propenyloxy)phenyl]-3-(3,4,5-trimethoxyphenyl)-2-propen-1-one]	76.1%	1.5 µg/mL	3.4 µM	8.2 µM	12 µM	18 µg/mL (≈ 40.9 µM)	40.9 µM														
C=CCOc1cc(OC)c(C(=O)/C=C/c2ccc(F)cc2)c(OCC=C)c1 [Compound I-23, (2E)-3-(4-Fluorophenyl)-1-[2-methoxy-4,6-bis(2-propenyloxy)phenyl]-2-propen-1-one]	66.5%	5.27 µg/mL	14.3 µM	9.5 µM	13.8 µM	5 µg/mL (≈ 13.6 µM)	13.6 µM														
Cc1ccc(C=NNc2ncnc3sc4c(c23)CCCC4)cc1 [II-05]																					IC50 [1]: 6.3 µM; Cytotoxicity VERO Lab B ([3]; Lab B): 11.0; GI50 in indicated cell line: VERO [6]: 10.0 µg/mL (≈ 31 µM); GI50 in indicated cell line: 3T3 [7]: 12.1 µg/mL (≈ 37.5 µM); IC50 ([8]; read-out: L. amazonensis IC50): 13.7 µM; GI50 in indicated cell line: HT-29 [9]: >62.5 µg/mL; GI50 in indicated cell line: H460 [10]: 42.9 µg/mL (≈ 133 µM); GI50 in indicated cell line: M-14 [11]: >62.5 µg/mL; GI50 in indicated cell line: K562 [12]: 2.3 µg/mL (≈ 7.13 µM); GI50 in indicated cell line: DU145 [13]: >62.5 µg/mL; GI50 in indicated cell line: MCF-7 [14]: 4.2 µg/mL (≈ 13 µM); MIC MABA [15]: >100 µg/mL
CCc1ccc(/C=N\Nc2ncnc3sc4c(c23)CCCC4)cc1 [II-06]								50.9 µM	4 µg/mL (≈ 11.9 µM)	3.2 µg/mL (≈ 9.51 µM)	6.6 µg/mL (≈ 19.6 µM)	12.1 µg/mL (≈ 36 µM)	9.6	10.8 µg/mL (≈ 32.1 µM)	9.5 µg/mL (≈ 28.2 µM)	64 µg/mL (≈ 190 µM)	3.7 µg/mL (≈ 11 µM)	19.8 µg/mL (≈ 58.8 µM)	6.2 µg/mL (≈ 18.4 µM)	> 100 µg/mL	Mean lesion size (mm) ([17]; after 4 weeks treatment): 3.0 mm; Mean parasite quantification (per 10^6) in lesion per mg (±SD) ([17]; after 4 weeks treatment): 1.19 (±0.27) amastigotes (×10^6)/mg; Mean lesion wt (mg) (±SD) ([17]; after 4 weeks treatment): 70.9 (±9.9) mg; % Variation of lesion wt ([17]; after 4 weeks treatment): −17%; % reduction of parasite burden in the lesion ([17]; after 4 weeks treatment): 30%; Mean lesion size (mm) ([17]; after 7 weeks treatment): 4.7 mm; Mean parasite quantification (per 10^6) in lesion per mg (±SD) ([17]; after 7 weeks treatment): 1.46 (±0.30) amastigotes (×10^6)/mg; Mean lesion wt (mg) (±SD) ([17]; after 7 weeks treatment): 78.4 (±1.6) mg; % Variation of lesion wt ([17]; after 7 weeks treatment): 12%; % reduction of parasite burden in the lesion ([17]; after 7 weeks treatment): 2%; IC50 [19]: 3.5 µg/mL (≈ 10.4 µM); IC50 ([5]; read-out: L. amazonensis IC50): 5.3 µM
Brc1ccc(/C=N\Nc2ncnc3sc4c(c23)CCCC4)cc1 [II-30]								3 µM	6 µg/mL (≈ 15.5 µM)	> 0.5 µg/mL	2.8 µg/mL (≈ 7.23 µM)	6.8 µg/mL (≈ 17.6 µM)	8.8	4.8 µg/mL (≈ 12.4 µM)	4.1 µg/mL (≈ 10.6 µM)	13 µg/mL (≈ 33.6 µM)	2.2 µg/mL (≈ 5.68 µM)	5.6 µg/mL (≈ 14.5 µM)	2.3 µg/mL (≈ 5.94 µM)	> 100 µg/mL	Selectivity Index Lab B ([4]; IC50, VERO/IC50, T. cruzi, Lab B): 0.8; IC50 ([4]; Lab A, read-out: T. cruzi IC50 Lab A): 1.1 µg/mL; IC50 ([4]; Lab B, read-out: T. cruzi IC50 Lab B): 7.9 µg/mL; IC50 [19]: > 0.5 µg/mL; IC50 ([5]; read-out: L. amazonensis IC50): 0.3 µM
